# No end group written: not given here.
# System: transgenic humanized HLA-A2/DR1 mice
# Assay: Immunization of transgenic humanized HLA-A2/DR1 mice, ex vivo splenocyte stimulation
# Assay type: in vivo, mouse
# Settings: 100 μg peptide s.c. days 0, 14, 21 with 25 μg Poly I:C and 10 μg Pan-DR peptide; splenocytes one week after third injection restimulated overnight with 10 μg/mL peptide, intracellular IFN-γ; 5 mice
row,Compound,CD8+ T cells in the spleen reacting to the minimal L2-9-mer peptide
1,MTEYKL L VVGA V GV GKSALTIQLIQNHFVDE [31-mer G12V peptide],about 8%

# Same assay, conditions: same immunization; HLA-A*02:01-positive/G12V-positive CFPAC-1, overnight incubation, intracellular IFN-γ
row,Compound,Recognition of CFPAC-1 cells by CD8+ T cells of immunized mice
1,MTEYKL L VVGA V GV GKSALTIQLIQNHFVDE [31-mer G12V peptide],recognized

# Same assay, conditions: same immunization; ex vivo restimulation with WT-9-mer
row,Compound,Recognition of the wild-type peptide by CD8+ T cells of immunized mice
1,MTEYKL L VVGA V GV GKSALTIQLIQNHFVDE [31-mer G12V peptide],did not recognize

# Same assay, conditions: same immunization; ex vivo restimulation with original 9-mer
row,Compound,Share of L2-9-mer-reactive CD8+ T cells that also reacted to the original 9-mer epitope
1,MTEYKL L VVGA V GV GKSALTIQLIQNHFVDE [31-mer G12V peptide],half

# Biological target: HLA-A*03:01 (Homo sapiens, UniProt P04439)
# Assay: not given
# Assay type: binding
# Settings: not given
row,Compound,EC50
1,"CC[C@H](C)[C@H](N)C(=O)N[C@@H](CC(C)C)C(=O)N[C@@H](CCCNC(=N)N)C(=O)NCC(=O)N[C@@H](CO)C(=O)N[C@H](C(=O)N[C@@H](C)C(=O)N[C@@H](Cc1c[nH]cn1)C(=O)N[C@@H](CCCCN)C(=O)O)C(C)C [Flu-NP 265-273, reference compound]",6.33 µM
2,VVGAAGVGK,277 µM
3,VVVGAAGVGK,94 µM
4,VVVGARGVGK,69.7 µM

# Biological target: HLA-A*02:01 (Homo sapiens, UniProt P04439, D140Y/D185E/D98H/E176V/E277Q/G131W/G231S/I119V/I121R/I166T/I218V/L300P/L318F/N151K/N90K/P208A/P217A/Q86G/Q94H/R138H/R169H/T345S)
# Assay: MHC-I stabilization assay, TAP-deficient T2 cells
# Assay type: binding
# Settings: not given
row,Compound,EC50
1,CC(C)C[C@H](NC(=O)[C@@H](N)CCCCN)C(=O)N[C@H](C(=O)N[C@H](C(=O)N[C@H](C(=O)NCC(=O)N[C@@H](C)C(=O)N[C@@H](C)C(=O)NCC(=O)N[C@H](C(=O)O)C(C)C)C(C)C)C(C)C)C(C)C,50.2 µM
2,KLVVVGARGV,151 µM
3,KLVVVGASGV,72 µM
4,LVVVGARGV,429 µM
5,LVVVGASGV,581 µM
6,YLVVGARGV,15.6 µM
7,YLVVGASGV,21.2 µM

# Same assay, conditions: Table 1; T2 cells, HLA-A*02:01 stabilization, serum-free RPMI, 4 hours, 37°C, peptide from 100 µM in at least 8 serial dilution steps, flow cytometry MFI (BB7.2); half-maximal MFI; analyzed three times, mean; read-out: EC50 (µM) Binding assay
row,Compound,EC50
1,LLVVGAAGV,17.5 µM
2,LLVVGACGV,73.5 µM
3,LLVVGADGV,83.4 µM
4,LLVVGARGV,23.7 µM
5,LLVVGASGV,90.6 µM
6,LLVVGAVGV,25.6 µM
7,LVVVGAAGV,191 µM
8,LVVVGACGV,619 µM
9,LVVVGADGV,453 µM
10,YLVVGAAGV,16.4 µM
11,YLVVGACGV,26.1 µM
12,YLVVGADGV,13.4 µM
13,YLVVGAVGV,22.9 µM
14,YLVVVGAAGV,27.7 µM
15,YLVVVGACGV,95.5 µM
16,YLVVVGADGV,5.68 µM
17,YLVVVGASGV,10.7 µM
18,YLVVVGAVGV,15.5 µM
19,YVVVGAAGV,117 µM
20,YVVVGACGV,138 µM
21,YVVVGADGV,199 µM
22,YVVVGARGV,51.6 µM
23,YVVVGASGV,207 µM
24,YVVVGAVGV,28.3 µM

# Biological target: HLA-A*11:01 (Homo sapiens, UniProt P04439, A114D/D185E/E176A/F33Y/L180Q/S129P/T187R)
# Assay: Cell-based competitive MHC-I-binding assay, CJO-A lymphoblastoid cells
# Settings: not given
row,Compound,IC50
1,"CC[C@H](C)[C@H](NC(=O)[C@@H](N)CO)C(=O)N[C@H](C(=O)N1CCC[C@H]1C(=O)N[C@@H](CO)C(=O)NCC(=O)N1CCC[C@H]1C(=O)N[C@@H](CC(C)C)C(=O)N[C@@H](CCCCN)C(=O)O)[C@@H](C)CC [Flu-MP 13-21, reference compound]",1.44e-06 M
2,VVGAAGVGK,1.12e-05 M
3,VVVGAAGVGK,7.03e-06 M
4,VVVGARGVGK,4.61e-05 M

# Same assay, conditions: Table S2; […], competition with 500 nM FITC-labelled KVFPK(FITC)ALINK, serum-free RPMI, 4 hours, 37°C, peptide from 100 µM, flow cytometry; analyzed three times, mean; read-out: EC/IC50 (M) Binding assay: IC50, HLA-A*11:01
row,Compound,IC50
1,CC(C)[C@H](N)C(=O)N[C@H](C(=O)NCC(=O)N[C@@H](C)C(=O)N[C@@H](CO)C(=O)NCC(=O)N[C@H](C(=O)NCC(=O)N[C@@H](CCCCN)C(=O)O)C(C)C)C(C)C,1.27e-05 M
2,CC(C)[C@H](N)C(=O)N[C@H](C(=O)N[C@H](C(=O)NCC(=O)N[C@@H](C)C(=O)N[C@@H](CO)C(=O)NCC(=O)N[C@H](C(=O)NCC(=O)N[C@@H](CCCCN)C(=O)O)C(C)C)C(C)C)C(C)C,1.02e-05 M
3,VVGARGVGK,0.000157 M

# Source: paper PMC9204602, “Optimized Anchor-Modified Peptides Targeting Mutated RAS Are Promising Candidates for Immunotherapy” (Frontiers in Immunology, 2022)
